Measurements published in patent publication US20210349099A1, “CANCER BIOMARKERS AND METHODS OF USE THEREOF” (X4 Pharmaceuticals, Inc., priority 2017, published 2021).

Key:
[1] = system: melanoma biopsy samples; experiment: VISTA panel staining of melanoma biopsies (CD163, CD206, VISTA, COX-2, CD3, B7H3); assay type: in vivo, human
Description: Biopsy samples were obtained at baseline (top row) and at the end of […]-001 monotherapy (bottom row). […] The right column contains higher magnification views of the boxed regions in the center panel.

[2] = system: melanoma tumor microenvironment (TME); experiment: Multiplex immunofluorescence (mIF) immunophenotyping of melanoma biopsies; assay type: in vivo, human; conditions: melanoma patient #5
Method: (§1) Formalin-fixed paraffin-embedded (FFPE) tissue sections were baked for 1 hour at 60° C. The slides were dewaxed and stained on a Leica BOND Rx stainer (Leica, Buffalo Grove, Ill.) using Leica Bond reagents for dewaxing (Dewax Solution), antigen retrieval and antibody stripping (Epitope Retrieval Solution 2), and rinsing after each step (Bond Wash Solution). A high stringency wash was performed after the secondary and tertiary applications using high-salt TBST solution (0.05 M Tris, 0.3M NaCl, and 0.1% Tween-20, pH 7.2-7.6). OPAL Polymer HRP Mouse plus Rabbit (PerkinElmer, Hopkington, Mass.) was used for all secondary applications.
Antigen retrieval and antibody stripping steps were performed at 100° C. with all other steps at ambient temperature. Endogenous peroxidase was blocked with 3% H2O2 for 8 minutes followed by protein blocking with TCT buffer (0.05 M Tris, 0.15 M NaCl, 0.25% Casein, 0.1% Tween 20, pH 7.6+/−0.1) for 30 minutes. The first primary antibody (position 1) was applied for 60 minutes followed by the secondary antibody application for 10 minutes and the application of the tertiary TSA-amplification reagent (PerkinElmer OPAL fluor) for 10 minutes. The primary and secondary antibodies were stripped with retrieval solution for 20 minutes before repeating the process with the second primary antibody (position 2) starting with a new application of 3% H2O2. The process was repeated until all 6 positions were completed; however, there was no stripping step after the 6th position. Slides were removed from the stainer and stained with Spectral DAPI (Perkin Elmer) for 5 minutes, rinsed for 5 minutes, and coverslipped with Prolong Gold Antifade reagent (Invitrogen/Life Technologies, Grand Island, N.Y.).
Slides were cured for 24 hours at room temperature, then representative images from each slide were acquired on PerkinElmer Vectra 3.0 Automated Imaging System. Images were spectrally unmixed using PerkinElmer inForm software and exported as multi-image TIFF's for analysis in HALO software (Indica Labs, Corrales, N. Mex.).
Cellular analysis of the images were then analyzed with HALO image analysis software (Indica Labs, Cooales, N. Mex.). After the cells were visualized based on nuclear recognition (DAPI stain), the software measured fluorescence intensity of the estimated cytoplasmic areas of each cell. A mean intensity threshold above background was used to determine positivity for each fluorochrome within the cytoplasm, thereby, defining cells as either positive or negative for each marker. The positive cell data was then used to define colocalized populations and to perform nearest neighbor spatial analysis.
Formalin-fixed paraffin-embedded melanoma samples were stained sequentially with a 6-component immunophenotyping antibody panel, including CD4, CD8, PD-1, PD-L1, macrophage cocktail (CD68+CD163), and FoxP3 (Tregs). DAPI was used as a nuclear counterstain. Antibodies were detected using HRP-catalyzed deposition of fluorescent tyramide substrates (Opal, Perkin-Elmer). Images were obtained using spectral imaging, autofluorescence subtraction and unmixing (Vectra 3.0, Perkin-Elmer), and analyzed using HALO™ image analysis software.
as §1, with “Tumor samples obtained from melanoma patients were formalin-fixed and” for “Formalin-fixed”, “(FFPE) according to known procedures. FFPE” for “(FFPE)”, “OPAL Polymer HRP Mouse plus Rabbit (PerkinElmer, Hopkington, Mass.) was used for all secondary applications.” left out

[3] = end of X4P-001 monotherapy vs baseline

SMILES: NCCCCN(Cc1nc2ccccc2[nH]1)[C@H]1CCCc2cccnc21 [X4P-001]
- COX-2/mm^2 ([1]; Week 4, ROI Non-Tumor, Day 1 2.07): 1.22 /mm^2
- CD206/mm^2 ([1]; Week 4, ROI Non-Tumor, Day 1 252.20): 199.30 /mm^2
- CD3/mm^2 ([1]; Week 4, ROI Non-Tumor, Day 1 400.31): 494.97 /mm^2
- VISTA/mm^2 ([1]; Week 4, ROI Non-Tumor, Day 1 410.11): 144.72 /mm^2
- CD163/mm^2 ([1]; Week 4, ROI Non-Tumor, Day 1 514.86): 467.25 /mm^2
- B7H3/mm^2 ([1]; Week 4, ROI Non-Tumor, Day 1 615.63): 980.49 /mm^2
- Cells/mm^2 ([1]; Week 4, ROI Non-Tumor, Day 1 2057.63): 2217.73 /mm^2
- COX-2/mm^2 ([1]; Week 4, ROI Tumor, Day 1 3.40): 2.98 /mm^2
- CD3/mm^2 ([1]; Week 4, ROI Tumor, Day 1 239.91): 1050.68 /mm^2
- CD206/mm^2 ([1]; Week 4, ROI Tumor, Day 1 264.79): 161.25 /mm^2
- CD163/mm^2 ([1]; Week 4, ROI Tumor, Day 1 426.51): 661.21 /mm^2
- VISTA/mm^2 ([1]; Week 4, ROI Tumor, Day 1 2640.08): 852.86 /mm^2
- B7H3/mm^2 ([1]; Week 4, ROI Tumor, Day 1 4826.36): 3952.27 /mm^2
- Cells/mm^2 ([1]; Week 4, ROI Tumor, Day 1 5758.23): 5297.64 /mm^2
- COX-2/mm^2 ([1]; Week 4, ROI Whole Tissue, Day 1 2.87): 1.97 /mm^2
- CD206/mm^2 ([1]; Week 4, ROI Whole Tissue, Day 1 259.38): 182.26 /mm^2
- CD3/mm^2 ([1]; Week 4, ROI Whole Tissue, Day 1 308.53): 738.82 /mm^2
- CD163/mm^2 ([1]; Week 4, ROI Whole Tissue, Day 1 464.86): 552.27 /mm^2
- VISTA/mm^2 ([1]; Week 4, ROI Whole Tissue, Day 1 1673.17): 457.53 /mm^2
- B7H3/mm^2 ([1]; Week 4, ROI Whole Tissue, Day 1 2998.14): 2288.84 /mm^2
- Cells/mm^2 ([1]; Week 4, ROI Whole Tissue, Day 1 4149.31): 3572.93 /mm^2
- expression of VISTA [1, 3]: decreased expression
- numbers of CD3+ cells within tumor borders [1, 3]: increased numbers
- percentage of CD4 positive cells in the TME [2]: increased
- percentage of CD8 positive cells in the TME [2]: increased
- percentage of PD-1 positive cells in the TME [2]: increased
- percentage of PDL-1 positive cells in the TME [2]: increased
- percentage of Treg (FoxP3+) cells [2]: not altered
- percentage of macrophages (CD68/CD163+) ([2]; printed 24.1% vs. 25.4%, not altered): 25.4%
